Data set [1] is described as follows: Pharmacokinetic study of T1249 in hydrogel composition or aqueous solution, subcutaneous injection, blood plasma levels. It counts as in vivo, Sprague-Dawley rats. The conditions noted are these: s.c.; for PTF / AUC(0-inf) / Cmax / Tmax / AUC(0-t) / half-life: approximately 1.25 mg/kg, rat plasma; for AUC(0-inf) / Cmax / Tmax / AUC(0-t) / half-life: Sprague-Dawley, rat, plasma, sc, 1.25 mg/kg; for AUC(0-t): read-out: AUC(0-12); for half-life: read-out: t1/2,terminal (converted). The procedure: (§1) Pharmacokinetic parameters were calculated from the data as follows: The terminal elimination phase half (t½, terminal) was calculated using the equation 0.693/k, where k equals the terminal elimination rate constant and is determined from a log/linear regression of at least three data points from the plasma concentration-time curve. Cmax was defined as the highest observed concentration between 0 and 12 hours postdose, and tmax is the collection time corresponding to Cmax. The area under the plasma concentration-time curve from 0 to 12 hours postdose (AUC(0-12) was calculated using the trapezoidal rule. AUC(0-∞) was calculated using the trapezoidal rule and extrapolated to infinity by dividing the last plasma concentration by the terminal elimination rate constant (k). PTF values (peak-trough fluctuations) were calculated using the equation (Cmax-Cmin)/Cav. Cmin was defined as the concentration of T20 at 12 hours postdose, and Cav was calculated using the equation AUC(0-12)/12.
Carrier hydrogel compositions containing T1249 were prepared in both a hydrogel and aqueous compositions. A hydrogel composition was prepared by adding 12.5 mg of lyophilized T1249 to 1 mL of the F5 hydrogel formulation described above in Section 6. A pharmaceutical composition of T1249 in aqueous solution was also prepared by combining lyophilized T1249 (12.5 mg) to 2 mL of water for injection (USP). The contained 12.5 mg of T1249, 25 mg mannitol and sodium hydroxide/hydrochloric acid to adjust the pH to 6.5.
The T1249 carrier hydrogel composition were administered to Sprague-Dawley rats according to the protocol described in Section 7.1, above, for T20. The rats were divided randomly into two groups (Groups I and II). The rats in Group I were each administered the above-described hydrogel compositions containing T1249. The rats in Group II were each administered the above-described composition of T1249 in aqueous buffer as a control. Blood plasma levels of T1249 were measured from samples collected from the animals immediately after (0 hours) and 1, 2, 4, 8, 12, 24, 36 and 48 hours post-dosing.
Pharmacokinetic parameters were calculated from the data as described in Section 7.1, above.

Data set [2] is described as follows: Pharmacokinetic study of T20 in hydrogel compositions or aqueous solution, single subcutaneous bolus injection, blood plasma levels. It is filed as in vivo, Sprague-Dawley rats. The conditions noted are these: for Tmax / half-life / AUC(0-inf) / Cmax / AUC(0-t): male, Sprague-Dawley, sc; for AUC(0-t): read-out: AUC(0-12). How it is done: Pharmacokinetic studies were performed on 16 cannulated male Sprague-Dawley rats having an average weight of 0.230 kg (StdDev=0.008 kg). Specifically, the rats were divided randomly into four groups (Groups I-IV). The rats in Group I were each administered T20 at a concentration of 50 mg/mL in a higher viscosity gel system (i.e., of the F2-50 pharmaceutical composition described in Section 6.1, supra. The rats in Group II were each administered T20 at a concentration of 25 mg/mL in a higher viscosity gel system (i.e., of the F2-25 pharmaceutical composition described in Section 6.1, supra). The rats in Group III were each administered T20 at a concentration of 25 mg/mL in a lower viscosity gel system (i.e., of the F5-25 pharmaceutical composition described in Section 6.1, supra). The rats in Group IV were administered T20 at a concentration of 25 mg/mL in an aqueous buffer (i.e., the WI-25 pharmaceutical composition described supra) as a control. The rats in all of the groups received the T20 via a single subcutaneous bolus injection of 25 μL of the formulation on the right side of the abdomen through a 30G½ Gauge needle. Each group received a dose level of approximately 5 mg/kg (Group I) or 2.5 mg/kg (Groups II-IV). More specifically, the dosages received by the animals in Groups I-IV were 6.71 mg/kg, 2.90 mg/kg, 3.27 mg/kg and 2.78 mg/kg, respectfully. These dosages were selected to approximate the dose levels, on a mg/cm^2 basis, to be used in humans.
Blood plasma levels of T20 were measured from samples collected from the animals immediately after (0 hours) and 1, 2, 4, 8, 12, and 24 hours post-dosing.
as §1

The mark [3] stands for this setting: Group I: 12.5 mg/mL T1249 in low viscosity hydrogel (F5).
[4] abbreviates: Group II: 12.5 mg/mL T1249 in aqueous buffer (control).
Setting [5] is: T20 as a subcutaneous injection of a hydrogel.
Setting [6] is: 2.9 mg/kg, Group II: F2-25, 25 mg/mL T20 in high viscosity hydrogel, single s.c. bolus 25 μL, 2.90 mg/kg, rat plasma.
The mark [7] stands for this setting: Group I: F2-50, 50 mg/mL T20 in high viscosity hydrogel, single s.c. bolus 25 μL, 6.71 mg/kg, rat plasma.
Setting [8] is: Group III: F5-25, 25 mg/mL T20 in lower viscosity hydrogel, single s.c. bolus 25 μL, 3.27 mg/kg, rat plasma.
Setting [9] is: Group IV: WI-25, 25 mg/mL T20 in aqueous buffer (control), single s.c. bolus 25 μL, 2.78 mg/kg, rat plasma.

`CC[C@H](C)[C@H](NC(=O)[C@H](CCC(N)=O)NC(=O)[C@H](C)NC(=O)[C@H](CCC(N)=O)NC(=O)[C@H](CCC(=O)O)NC(=O)[C@H](CC(C)C)NC(=O)[C@H](CC(C)C)NC(=O)[C@H](C)NC(=O)[C@@H](NC(=O)[C@@H](NC(=O)[C@H](CCCCN)NC(=O)[C@H](CCC(N)=O)NC(=O)[C@H](CCC(=O)O)NC(=O)[C@H](Cc1c[nH]c2ccccc12)NC(=O)[C@H](CCC(=O)O)NC(=O)[C@H](CCC(N)=O)NC(=O)[C@H](Cc1c[nH]c2ccccc12)NC(C)=O)[C@@H](C)CC)[C@@H](C)O)C(=O)N[C@@H](CCC(N)=O)C(=O)N[C@@H](CCC(N)=O)C(=O)N[C@@H](CCC(=O)O)C(=O)N[C@@H](CCCCN)C(=O)N[C@@H](CC(N)=O)C(=O)N[C@@H](CCC(=O)O)C(=O)N[C@@H](Cc1ccc(O)cc1)C(=O)N[C@@H](CCC(=O)O)C(=O)N[C@@H](CC(C)C)C(=O)N[C@@H](CCC(N)=O)C(=O)N[C@@H](CCCCN)C(=O)N[C@@H](CC(C)C)C(=O)N[C@@H](CC(=O)O)C(=O)N[C@@H](CCCCN)C(=O)N[C@@H](Cc1c[nH]c2ccccc12)C(=O)N[C@@H](C)C(=O)N[C@@H](CO)C(=O)N[C@@H](CC(C)C)C(=O)N[C@@H](Cc1c[nH]c2ccccc12)C(=O)N[C@@H](CCC(=O)O)C(=O)N[C@@H](Cc1c[nH]c2ccccc12)C(=O)N[C@@H](Cc1ccccc1)C(N)=O` [T1249]: in data set [1] (setting [3]), the PTF is recorded as 1.62 ± 0.086; the AUC(0-inf) (in general, total exposure, with the tail of the curve extrapolated) is 29100 ± 5200 ng·h/mL; the highest level (Cmax) was 1900 ± 334 ng/mL; the Tmax (usually the time at which the peak concentration occurs) was found to be 8 h. Further, in data set [1] (setting [3]), the AUC(0-t) was determined as 28200 ± 5640 ng·h/mL and the half-life is 3.37 ± 0.68 h. In data set [1] (setting [4]), the PTF worked out at 4.44 ± 0.680, the AUC(0-inf) turned out to be 18400 ± 4070 ng·h/mL, the concentration peaked (Cmax) at 3320 ± 215 ng/mL and the Tmax came to 2 h. Moreover, in data set [1] (setting [4]), the AUC(0-t) is 18300 ± 4060 ng·h/mL and the half-life is 2.28 ± 0.122 h. Further, the “pharmacokinetic properties, hydrogel versus aqueous solution” value in data set [1] (T1249 administered in a hydrogel composition) was “improved pharmacokinetic properties”.

For the compound enfuvirtide, the “T20 plasma concentration levels within 12 hours” value in data set [2] (T20 administered by a hydrogel, s.c.) is “remained elevated”; in data set [2] (T20 administered in an aqueous solution, s.c.), “already cleared the blood stream”. Further, the “change of bioavailability, hydrogel versus aqueous solution” value in data set [2] (setting [5]) is given as “approximately doubling”. For the same compound, in data set [2] (setting [5]), the “change of half-life, hydrogel versus aqueous solution” value was “approximately doubling”. Further, the “dose proportionality of pharmacokinetics (AUC, t½)” value in data set [2] (high viscosity hydrogel formulation of T20, s.c., both dose levels) is “linearity of pharmacokinetics within the dose range tested”. In addition, the time of peak concentration (Tmax) is around 2 h in data set [2] (rat, plasma, 2.78 mg/kg, Group IV: WI-25, 25 mg/mL T20 in aqueous buffer (control), single s.c. bolus 25 μL, 2.78 mg/kg, rat plasma); 4 h in data set [2] (rat, plasma, 2.9 mg/kg, Group II: F2-25, 25 mg/mL T20 in high viscosity hydrogel, single s.c. bolus 25 μL, 2.90 mg/kg, rat plasma); 4 h in data set [2] (rat, plasma, 3.27 mg/kg, Group III: F5-25, 25 mg/mL T20 in lower viscosity hydrogel, single s.c. bolus 25 μL, 3.27 mg/kg, rat plasma). For the same compound, the half-life in data set [2] (rat, plasma, T20 administered in a hydrogel, s.c., depending on the exact hydrogel formulation and T20 dosage, read-out: group mean half-life values) is 4.27 to 4.75 h; in data set [2] (2.9 mg/kg, Group II: F2-25, 25 mg/mL T20 in high viscosity hydrogel, single s.c. bolus 25 μL, 2.90 mg/kg, rat plasma, read-out: t1/2,terminal (converted)) it was 4.27 ± 0.159 h; in data set [2] (Group I: F2-50, 50 mg/mL T20 in high viscosity hydrogel, single s.c. bolus 25 μL, 6.71 mg/kg, rat plasma, read-out: t1/2,terminal (converted)), 4.75 ± 0.285 h; in data set [2] (Group III: F5-25, 25 mg/mL T20 in lower viscosity hydrogel, single s.c. bolus 25 μL, 3.27 mg/kg, rat plasma, read-out: t1/2,terminal (converted)), 4.61 ± 0.618 h; in data set [2] (Group IV: WI-25, 25 mg/mL T20 in aqueous buffer (control), single s.c. bolus 25 μL, 2.78 mg/kg, rat plasma, read-out: t1/2,terminal (converted)) it was 2.19 h. The AUC(0-inf) in data set [2] (setting [6]) was 24800 ± 4860 ng·h/mL; in data set [2] (setting [7]), 55400 ± 9150 ng·h/mL; in data set [2] (setting [8]), 32800 ± 9710 ng·h/mL; in data set [2] (setting [9]), 6080 ± 1610 ng·h/mL. Further, the Cmax – broadly, the peak of the concentration-time curve – was 2830 ± 316 ng/mL in data set [2] (setting [6]), 5970 ± 499 ng/mL in data set [2] (setting [7]), 3780 ± 751 ng/mL in data set [2] (setting [8]) and 1550 ± 640 ng/mL in data set [2] (setting [9]). In addition, the AUC(0-t) in data set [2] (setting [6]) amounted to 19600 ± 3450 ng·h/mL; in data set [2] (setting [7]) it was 43400 ± 4480 ng·h/mL; in data set [2] (setting [8]) it was 25700 ± 6140 ng·h/mL; in data set [2] (setting [9]) it was 5870 ± 1690 ng·h/mL.

(Values after patent publication US6541020B1, “Methods and compositions for administration of therapeutic reagents” (Trimeris, Inc., priority 1999, dated 2003).)
